Experimental data published in patent US11447535B2, “GLP-1 analogues” (Sun Pharmaceutical Industries Limited, priority 2018, dated 2022).
Marks after values point to notes of the source that are not given here. Where no end group is shown, it is not given here. Moiety B = not defined here

What was measured:
SD rats = assay: Oral glucose tolerance test (OGTT) in rats; single injection; 1 mg/kg; assay type: in vivo; parameters: Change in AUC (mg/dL*min): unit not given here; settings: for Blood Glucose AUC (mg/dL*min) Mean: Exp. 2; for Change in AUC (mg/dL*min): Exp. 2, vs control group
Experimental: (§1) Animals were divided into three groups—a normal control group, a test group and a third semaglutide group, with 4 animals in each group. The animals were fasted for 12 hours before initiation of OGTT. To the test group animals, the Compound 1 was injected subcutaneously at 1 mg/kg dose. To the semaglutide group, a dose of 1 mg/kg was injected subcutaneously. After 22 hrs, 166 hrs and 334 hrs of subcutaneous injection of test drug or semaglutide, blood glucose was measured with blood glucose meter (time 0 measurements). All the animals were then given 2 g/kg of glucose solution orally. Blood glucose was measured at 20, 40, 60, 90 and 120 minutes following glucose challenge. Body weight and food intake was recorded. Blood glucose data was analyzed using Two way ANOVA followed by Bonferroni posttests using PRISM (Graph Pad version 5.03). Data of Blood glucose AUC0-120 min, was analyzed using t test.
as §1, with “animals,” for “animals, the”, “1, Compound 13 and Compound 16 were” for “1 was”, “compound” for “drug”

[1] = Food intake and body weight recorded in the rat OGTT study; assay type: in vivo, rats; settings: 1 mg/Kg; for Body Weight Change (%) Mean / Food Consumption (g) Mean: Exp. 2
Experimental: as §1
as §1, with “animals,” for “animals, the”, “1, Compound 13 and Compound 16 were” for “1 was”, “compound” for “drug”

[2] = tested on: db/db mice (diabetic mouse model); assay: Separate db/db diabetic mouse study, q2d*15 up to day 28, recovery period day 29 to day 45; assay type: in vivo; settings: for Blood Glucose AUC (Day 30-37) % Change vs Control / Blood Glucose AUC (Day 30-37) (mg/dL*days) Mean / Blood Glucose AUC (Day 38-45) % Change vs Control / Blood Glucose AUC (Day 38-45) (mg/dL*days) Mean: recovery period
Experimental: The study was performed in similar manner as above on diabetic mouse model. The animals were divided into three treatment groups—a diabetic control group, a test group and a semaglutide treatment group. The representative compounds of the present disclosure, Compound 1, Compound 13 and Compound 16, were injected subcutaneously at 3.04 or 6.078 nM dose (every alternate day up to day 28 (q2d*15). The same dosage regimen was administered in semaglutide treatment group. Measurements of blood glucose levels and body weight were done daily. % HbA1c, Insulin was measured on Day 0, day 14 and day 29. Cumulative food intake and body weight change was calculated on day 14 and 29. % HbA1c, Insulin data was analyzed by two way ANOVA followed by Bonferroni's posttests using PRISM (Graph Pad version 5.03). Whereas Blood Glucose AUC, Body weight change and Cumulative food intake data was analyzed by one way ANOVA followed by Bonferroni's posttests using PRISM (Graph Pad version 5.03). From day 29 to day 45, animals were kept on recovery period during which no drug treatment was given. Blood Glucose and Body weight was measured during this period. On day 45, Body weight Changes, % HbA1c, Insulin was measured.

[3] = OGTT, 1 mg/Kg dose, after 24 hrs
[4] = earlier dose 3.04 nM (3.4 nM given for Compound 16)
[5] = recovery study, day 45, earlier dose 3.04 nM
[6] = recovery study, day 45, earlier dose 6.078 nM (6.0788 nM given for Compound 13)

Compound 6: SEQ ID NO: 10, Moiety B; differs from liraglutide in having an additional Leu at 32nd position (HAEGTFTSDVSSYLEGQAAK(Moiety B)EFIAWLVRGRGL-OH; reading uncertain)
% Glucose Reduction (Blood Glucose AUC0-120 min) (SD rats; [3]): 75.8%
Comp/std Liraglutide (ratio of % glucose reduction) (SD rats; [3]): 1.83
blood glucose lowering effect vs liraglutide (SD rats; OGTT, 1 mg/Kg, at 24 hrs): significantly higher than liraglutide

Compound 16: SEQ ID NO: 05, acylated with Moiety D (HXXXGTFTSDVSSYLXGQAAXEFXAWLVRGRGXX; lipidated side chain; (2)..(2) Xaa = Aib; (3)..(3) Xaa = absent.; (4)..(4) Xaa = Glu.; (16)..(16) Xaa = Glu.; (21)..(21) Lys is substituted; (24)..(24) Xaa is Ile.; (33)..(33) Xaa is Leu.; (34)..(34) Xaa is absent.)
Blood Glucose AUC (mg/dL*min) Mean (SD rats; OGTT, 1 mg/Kg, 22 hr): 1646 mg·min/dL
Change in AUC (mg/dL*min) (SD rats; OGTT, 1 mg/Kg, 22 hr): −80.7
Blood Glucose AUC (mg/dL*min) Mean (SD rats; OGTT, 1 mg/Kg, 168 hr): 4283 mg·min/dL
Change in AUC (mg/dL*min) (SD rats; OGTT, 1 mg/Kg, 168 hr): −57.6
Blood Glucose AUC (mg/dL*min) Mean (SD rats; OGTT, 1 mg/Kg, 336 hr): 8295.0 mg·min/dL
Change in AUC (mg/dL*min) (SD rats; OGTT, 1 mg/Kg, 336 hr): −2.3
reduction in blood glucose AUC (SD rats; after 168 hrs of injection, 1 mg/kg): about 60%
Body Weight Change (%) Mean ([1]; 48 h): −10.7%
Food Consumption (g) Mean ([1]; 48 h): 5.9 g
Body Weight Change (%) Mean ([1]; 154 h): −7.0%
Body Weight Change (%) Mean ([1]; 324 h): −4.3%
Food Consumption (g) Mean ([1]; 324 h): 104.3 g
food consumed vs animals administered with semaglutide ([1]; text on Table 8): consumed significantly less food
lowering of body weight ([1]; text on Table 8): substantial lowering of body weight
Blood Glucose AUC (Day 0-29) % Change Vs Control ([2]; 3.04 nM, q2d*15): −44.54%
Blood Glucose AUC (Day 0-29) (mg/dL*days) Mean ([2]; 3.04 nM, q2d*15): 9399.0*** mg/dL*days
Body Weight Change Day 29, % Change vs Day 0 Mean ([2]; 3.04 nM, q2d*15): −1.4%
Cumulative Food Intake (g) Day 0-29 Mean ([2]; 3.04 nM, q2d*15): 77.4 g
Blood Glucose AUC (Day 0-29) % Change Vs Control ([2]; 6.078 nM, q2d*15): −52.29%
Blood Glucose AUC (Day 0-29) (mg/dL*days) Mean ([2]; 6.078 nM, q2d*15): 8086.1***## mg/dL*days
Body Weight Change Day 29, % Change vs Day 0 Mean ([2]; 6.078 nM, q2d*15): −5.5%
Cumulative Food Intake (g) Day 0-29 Mean ([2]; 6.078 nM, q2d*15): 66.7 g
% HbA1C Mean ([2]; Day 0, 3.04 nM, q2d*15): 7.74%
Insulin (ng/mL) Mean ([2]; Day 0, 3.04 nM, q2d*15): 13.9 ng/mL
% HbA1C Mean ([2]; Day 0, 6.078 nM, q2d*15): 7.83%
Insulin (ng/mL) Mean ([2]; Day 0, 6.078 nM, q2d*15): 21.8 ng/mL
% HbA1C Mean ([2]; Day 14, 3.04 nM, q2d*15): 5.67 ***# %
Insulin (ng/mL) Mean ([2]; Day 14, 3.04 nM, q2d*15): 50.8* ng/mL
% HbA1C Mean ([2]; Day 14, 6.078 nM, q2d*15): 5.64 ***# %
Insulin (ng/mL) Mean ([2]; Day 14, 6.078 nM, q2d*15): 58.1** ng/mL
% HbA1C Mean ([2]; Day 29, 3.04 nM, q2d*15): 5.33 ***# %
Insulin (ng/mL) Mean ([2]; Day 29, 3.04 nM, q2d*15): 53.8** ng/mL
% HbA1C Mean ([2]; Day 29, 6.078 nM, q2d*15): 5.16 ***# %
Insulin (ng/mL) Mean ([2]; Day 29, 6.078 nM, q2d*15): 68.2*** ng/mL
HbA1c, blood glucose, food consumption and body weight vs control ([2]; about 3 nM and 6 nM dose): significant reduction
Blood Glucose AUC (Day 30-37) % Change vs Control [2, 4]: −32.62%
Blood Glucose AUC (Day 30-37) (mg/dL*days) Mean [2, 4]: 2420.0** mg/dL*days
Blood Glucose AUC (Day 38-45) % Change vs Control [2, 4]: −8.82%
Blood Glucose AUC (Day 38-45) (mg/dL*days) Mean [2, 4]: 3284.0* mg/dL*days
Blood Glucose AUC (Day 30-37) % Change vs Control ([2]; earlier dose 6.078 nM): −39.65%
Blood Glucose AUC (Day 30-37) (mg/dL*days) Mean ([2]; earlier dose 6.078 nM): 2167.7*** mg/dL*days
Blood Glucose AUC (Day 38-45) % Change vs Control ([2]; earlier dose 6.078 nM): −12.97%
Blood Glucose AUC (Day 38-45) (mg/dL*days) Mean ([2]; earlier dose 6.078 nM): 3134.7** mg/dL*days
% HbA1C Mean [2, 5]: 7.1* %
Delta HbA1C vs. DC [2, 5]: −1.4
Insulin (ng/mL) Mean [2, 5]: 15.5 ng/mL
% HbA1C Mean [2, 6]: 7.2* %
Delta HbA1C vs. DC [2, 6]: −1.3
Insulin (ng/mL) Mean [2, 6]: 18.4 ng/mL
Body Weight % Change vs Day 45 Mean ([2]; recovery study, earlier dose 3.04 nM): 6.1%
Body Weight % Change vs Day 45 Mean ([2]; recovery study, earlier dose 6.078 nM (6.0788 nM given for Compound 13)): 5.7%
